# Assay results published in article PMC5218480 (PLoS ONE, 2017).
# Tested on: MV-4-11 cells
# Assay: Gene expression microarray analysis (Affymetrix PrimeView) and GSEA
# Format: cell-based, human
# Parameters: RFU PODN (11730768_x_at) / Fold change /veh PODN (11730768_x_at) / RFU LINC00158 (11744669_a_at) / Fold change /veh LINC00158 (11744669_a_at) / RFU DUSP10 (11751237_a_at) / Fold change /veh DUSP10 (11751237_a_at) / RFU ID3 (11757404_x_at) / Fold change /veh ID3 (11757404_x_at) / RFU PLEKHG5 (11737974_s_at) / Fold change /veh PLEKHG5 (11737974_s_at) / RFU LRRC4B (11730491_at) / Fold change /veh LRRC4B (11730491_at) / RFU GIMAP4 (11747438_a_at) / Fold change /veh GIMAP4 (11747438_a_at) / RFU KRT8 (11758183_x_at) / Fold change /veh KRT8 (11758183_x_at) / RFU CNN1 (11734310_a_at) / Fold change /veh CNN1 (11734310_a_at) / RFU VPS37D (11726825_at) / Fold change /veh VPS37D (11726825_at) / RFU C10orf10 (11716522_x_at) / Fold change /veh C10orf10 (11716522_x_at) / RFU KIR2DL2 /// KIR2DL4 /// KIR2DL5A /// KIR2DL5B /// KIR2DS1 /// KIR2DS2 /// KIR2DS3 /// KIR2DS4 /// KIR3DL3 /// KIR3DL3 /// KIR3DS1 (11738374_at) / Fold change /veh KIR2DL2 /// KIR2DL4 /// KIR2DL5A /// KIR2DL5B /// KIR2DS1 /// KIR2DS2 /// KIR2DS3 /// KIR2DS4 /// KIR3DL3 /// KIR3DL3 /// KIR3DS1 (11738374_at) / RFU C1QL1 (11718748_at) / Fold change /veh C1QL1 (11718748_at) / RFU TMPRSS4 (11747572_a_at) / Fold change /veh TMPRSS4 (11747572_a_at) / RFU HAMP (11756126_x_at) / Fold change /veh HAMP (11756126_x_at) / RFU RNFT2 (11725882_a_at) / Fold change /veh RNFT2 (11725882_a_at) / RFU NR4A2 (11747474_a_at) / Fold change /veh NR4A2 (11747474_a_at) / RFU ABCC12 (11746883_a_at) / Fold change /veh ABCC12 (11746883_a_at) / RFU TMEM136 (11760407_x_at) / Fold change /veh TMEM136 (11760407_x_at) / RFU CLDN22 /// WWC2 (11732394_at) / Fold change /veh CLDN22 /// WWC2 (11732394_at) / RFU HLA-DPB1 (11760878_x_at) / Fold change /veh HLA-DPB1 (11760878_x_at) / RFU SPINT1 (11716480_a_at) / Fold change /veh SPINT1 (11716480_a_at) / RFU GAP43 (11754022_s_at) / Fold change /veh GAP43 (11754022_s_at) / RFU A4GNT (11735810_at) / Fold change /veh A4GNT (11735810_at) / RFU PRB3 (11715151_x_at) / Fold change /veh PRB3 (11715151_x_at) / RFU TUBB4B (11761932_at) / Fold change /veh TUBB4B (11761932_at) / RFU CAPN14 (11732068_a_at) / Fold change /veh CAPN14 (11732068_a_at) / RFU TMCC2 (11721928_a_at) / Fold change /veh TMCC2 (11721928_a_at) / RFU IRGQ (11745062_a_at) / Fold change /veh IRGQ (11745062_a_at) / RFU FAM174B (11720279_a_at) / Fold change /veh FAM174B (11720279_a_at) / RFU TMPRSS4 (11748680_a_at) / Fold change /veh TMPRSS4 (11748680_a_at) / RFU FAM212B (11763350_a_at) / Fold change /veh FAM212B (11763350_a_at) / RFU PLEKHG5 (11743358_a_at) / Fold change /veh PLEKHG5 (11743358_a_at) / RFU ZSCAN30 (11745921_a_at) / Fold change /veh ZSCAN30 (11745921_a_at) / RFU CMKLR1 (11741424_a_at) / Fold change /veh CMKLR1 (11741424_a_at) / RFU LOC101060620 /// MAPK8IP1 (11723275_at) / Fold change /veh LOC101060620 /// MAPK8IP1 (11723275_at) / RFU SPTSSB (11747773_x_at) / Fold change /veh SPTSSB (11747773_x_at) / RFU PRSS12 (11739890_at) / Fold change /veh PRSS12 (11739890_at) / RFU BIN1 (11741810_x_at) / Fold change /veh BIN1 (11741810_x_at) / RFU WNT11 (11732464_a_at) / Fold change /veh WNT11 (11732464_a_at) / RFU C10orf10 (11716521_a_at) / Fold change /veh C10orf10 (11716521_a_at) / RFU C5orf56 (11738089_at) / Fold change /veh C5orf56 (11738089_at) / RFU CYB561 (11721691_x_at) / Fold change /veh CYB561 (11721691_x_at) / RFU ANKRD19P (11752326_a_at) / Fold change /veh ANKRD19P (11752326_a_at) / RFU OR2T12 /// OR2T33 /// OR2T8 (11738714_s_at) / Fold change /veh OR2T12 /// OR2T33 /// OR2T8 (11738714_s_at) / RFU VCAN (11748164_a_at) / Fold change /veh VCAN (11748164_a_at) / RFU JSRP1 (11732532_at) / Fold change /veh JSRP1 (11732532_at) / RFU KRTAP10-11 (11738290_x_at) / Fold change /veh KRTAP10-11 (11738290_x_at) / RFU MYO3A (11730013_a_at) / Fold change /veh MYO3A (11730013_a_at) / RFU EBF3 (11725865_a_at) / Fold change /veh EBF3 (11725865_a_at) / RFU CAMK2N1 (11719241_x_at) / Fold change /veh CAMK2N1 (11719241_x_at) / RFU C5orf56 (11738088_a_at) / Fold change /veh C5orf56 (11738088_a_at) / RFU OLFML3 (11715873_a_at) / Fold change /veh OLFML3 (11715873_a_at) / RFU LOC100653217 /// NTM (11731650_a_at) / Fold change /veh LOC100653217 /// NTM (11731650_a_at) / RFU MAPK11 (11762145_a_at) / Fold change /veh MAPK11 (11762145_a_at) / RFU FIZ1 (11724087_x_at) / Fold change /veh FIZ1 (11724087_x_at) / RFU OASL (11726364_x_at) / Fold change /veh OASL (11726364_x_at) / RFU SOX15 (11748057_x_at) / Fold change /veh SOX15 (11748057_x_at) / RFU CD79A (11719716_a_at) / Fold change /veh CD79A (11719716_a_at) / RFU HIST1H1D (11736915_at) / Fold change /veh HIST1H1D (11736915_at) / RFU CASKIN2 (11723855_a_at) / Fold change /veh CASKIN2 (11723855_a_at) / RFU LOC730098 (11760151_x_at) / Fold change /veh LOC730098 (11760151_x_at) / RFU OR4N2 (11742367_at) / Fold change /veh OR4N2 (11742367_at) / RFU PRRT2 (11749266_a_at) / Fold change /veh PRRT2 (11749266_a_at) / RFU SNX32 (11753110_a_at) / Fold change /veh SNX32 (11753110_a_at) / RFU CDHR5 (11726645_a_at) / Fold change /veh CDHR5 (11726645_a_at) / RFU RCAN1 (11760418_a_at) / Fold change /veh RCAN1 (11760418_a_at) / RFU FAM167A (11723789_a_at) / Fold change /veh FAM167A (11723789_a_at) / RFU FAM26E (11764081_at) / Fold change /veh FAM26E (11764081_at) / RFU ISYNA1 (11749810_s_at) / Fold change /veh ISYNA1 (11749810_s_at) / RFU ACY1 (11761880_at) / Fold change /veh ACY1 (11761880_at) / RFU 11764098_at / Fold change /veh 11764098_at / RFU SAMD14 (11745864_x_at) / Fold change /veh SAMD14 (11745864_x_at) / RFU NPB (11741838_a_at) / Fold change /veh NPB (11741838_a_at) / RFU TMPRSS6 (11731388_a_at) / Fold change /veh TMPRSS6 (11731388_a_at) / RFU KRTAP10-2 (11738614_at) / Fold change /veh KRTAP10-2 (11738614_at) / RFU ARHGAP8 /// PRR5-ARHGAP8 (11727945_x_at) / Fold change /veh ARHGAP8 /// PRR5-ARHGAP8 (11727945_x_at) / RFU KRTAP5-7 /// NADSYN1 (11734609_at) / Fold change /veh KRTAP5-7 /// NADSYN1 (11734609_at) / RFU RASL12 (11751679_a_at) / Fold change /veh RASL12 (11751679_a_at) / RFU CDKN2B (11736163_a_at) / Fold change /veh CDKN2B (11736163_a_at) / RFU PRF1 (11729649_at) / Fold change /veh PRF1 (11729649_at) / RFU, ZNF638 /// ZNF638-IT1 / Fold change vs veh, ZNF638 /// ZNF638-IT1 / RFU, PANK3 / Fold change vs veh, PANK3 / RFU, SH3YL1 / Fold change vs veh, SH3YL1 / RFU, ZEB2 / Fold change vs veh, ZEB2 / RFU, NRIP1 / Fold change vs veh, NRIP1 / RFU, PTTG1IP / Fold change vs veh, PTTG1IP / RFU, CAPN2 / Fold change vs veh, CAPN2 / RFU, MED14 / Fold change vs veh, MED14 / RFU, SNORA58 / Fold change vs veh, SNORA58 / RFU, C1orf63 / Fold change vs veh, C1orf63 / RFU, LRRFIP1 / Fold change vs veh, LRRFIP1 / RFU, NDUFAF7 / Fold change vs veh, NDUFAF7 / RFU, SLC12A2 / Fold change vs veh, SLC12A2 / RFU, IBTK / Fold change vs veh, IBTK / RFU, ESF1 / Fold change vs veh, ESF1 / Fold change vs veh, TMEM50B / RFU, TAOK1 / Fold change vs veh, TAOK1 / RFU, ACBD3 / Fold change vs veh, ACBD3 / RFU, TMA16 / Fold change vs veh, TMA16 / RFU, RWDD3 / Fold change vs veh, RWDD3 / RFU, BCAT1 / Fold change vs veh, BCAT1 / RFU, EDEM3 / Fold change vs veh, EDEM3 / RFU, TMEM33 / Fold change vs veh, TMEM33 / RFU, WDR75 / Fold change vs veh, WDR75 / RFU, AHCTF1 / Fold change vs veh, AHCTF1 / RFU, TFRC / Fold change vs veh, TFRC / RFU, ZDHHC17 / Fold change vs veh, ZDHHC17 / RFU, NOM1 / Fold change vs veh, NOM1 / RFU, ARL8B / Fold change vs veh, ARL8B / RFU, ZBTB11 / Fold change vs veh, ZBTB11 / RFU, TAMM41 / Fold change vs veh, TAMM41 / RFU, KIAA1704 /// LOC100996395 / Fold change vs veh, KIAA1704 /// LOC100996395 / RFU, ING1 / Fold change vs veh, ING1 / RFU, TRMT61B / Fold change vs veh, TRMT61B / RFU, FUBP3 / Fold change vs veh, FUBP3 / RFU, TP53 / Fold change vs veh, TP53 / RFU, TNKS2 / Fold change vs veh, TNKS2 / RFU, ZFP14 / Fold change vs veh, ZFP14 / RFU, ACTR2 / Fold change vs veh, ACTR2 / RFU, PPP3R1 / Fold change vs veh, PPP3R1 / RFU, PIK3R1 / Fold change vs veh, PIK3R1 / RFU, HNRNPA1 / Fold change vs veh, HNRNPA1 / RFU, RNF170 / Fold change vs veh, RNF170 / RFU, ZNF28 / Fold change vs veh, ZNF28 / RFU, RNGTT / Fold change vs veh, RNGTT / RFU, OGT / Fold change vs veh, OGT / RFU, BRD1 / Fold change vs veh, BRD1 / RFU, MARS / Fold change vs veh, MARS / RFU, ZNF655 / Fold change vs veh, ZNF655 / RFU, FAHD1 / Fold change vs veh, FAHD1 / RFU, BDP1 / Fold change vs veh, BDP1 / RFU, LRRCC1 / Fold change vs veh, LRRCC1 / RFU, ARID1A / Fold change vs veh, ARID1A / RFU, ZNF146 / Fold change vs veh, ZNF146 / RFU, ZNF330 / Fold change vs veh, ZNF330 / RFU, GPN3 / Fold change vs veh, GPN3 / RFU, C9orf123 / Fold change vs veh, C9orf123 / RFU, N4BP2L2 / Fold change vs veh, N4BP2L2 / RFU, ARFIP1 / Fold change vs veh, ARFIP1 / RFU, FAM179B / Fold change vs veh, FAM179B / RFU, BCL10 / Fold change vs veh, BCL10 / RFU, UHRF1BP1L / Fold change vs veh, UHRF1BP1L / RFU, BET1 / Fold change vs veh, BET1 / RFU, CNOT2 / Fold change vs veh, CNOT2 / RFU, ZNF268 / Fold change vs veh, ZNF268 / Fold change vs veh, ZNF507 / RFU, DGCR2 / Fold change vs veh, DGCR2 / RFU, WDSUB1 / Fold change vs veh, WDSUB1 / Fold change vs veh, HSP90B1 /// MIR3652 / RFU, ADSS / Fold change vs veh, ADSS / RFU, GK / Fold change vs veh, GK / RFU, ZNF148 / Fold change vs veh, ZNF148 / RFU, TAF9 / Fold change vs veh, TAF9 / RFU, SLC1A5 / Fold change vs veh, SLC1A5 / RFU, SLMO2 / Fold change vs veh, SLMO2 / RFU, ABCC4 / Fold change vs veh, ABCC4 / RFU, LOC101060439 /// RAP1B / Fold change vs veh, LOC101060439 /// RAP1B / RFU, RFX7 / Fold change vs veh, RFX7 / RFU, GTPBP10 / Fold change vs veh, GTPBP10 / RFU, CNEP1R1 / Fold change vs veh, CNEP1R1 / RFU, BIVM-ERCC5 /// ERCC5 / Fold change vs veh, BIVM-ERCC5 /// ERCC5 / RFU, ILF3 / Fold change vs veh, ILF3 / RFU 11762660_at / Fold change /veh 11762660_at / RFU VCAN (11757783_s_at) / Fold change /veh VCAN (11757783_s_at) / RFU DDX43 (11728927_at) / Fold change /veh DDX43 (11728927_at) / RFU KRT8 (11758188_x_at) / Fold change /veh KRT8 (11758188_x_at) / RFU NKD1 (11759106_at) / Fold change /veh NKD1 (11759106_at) / RFU SRD5A1 (11742802_a_at) / Fold change /veh SRD5A1 (11742802_a_at) / RFU TPSAB1 /// TPSB2 (11721975_s_at) / Fold change /veh TPSAB1 /// TPSB2 (11721975_s_at) / RFU GSTM3 (11746129_a_at) / Fold change /veh GSTM3 (11746129_a_at) / RFU IL23R (11737362_x_at) / Fold change /veh IL23R (11737362_x_at) / RFU TMEM51 (11727254_a_at) / Fold change /veh TMEM51 (11727254_a_at) / RFU PIWIL2 (11732686_x_at) / Fold change /veh PIWIL2 (11732686_x_at) / RFU ORM1 (11744905_x_at) / Fold change /veh ORM1 (11744905_x_at) / RFU CCDC152 (11743942_at) / Fold change /veh CCDC152 (11743942_at) / RFU ECM1 (11717891_a_at) / Fold change /veh ECM1 (11717891_a_at) / RFU IL23R (11748794_a_at) / Fold change /veh IL23R (11748794_a_at) / RFU TNFAIP8L3 (11732012_x_at) / Fold change /veh TNFAIP8L3 (11732012_x_at) / RFU MBOAT4 (11741988_at) / Fold change /veh MBOAT4 (11741988_at) / RFU 11764193_at / Fold change /veh 11764193_at / RFU TMEM53 (11763286_at) / Fold change /veh TMEM53 (11763286_at) / RFU MAGEB2 (11727129_at) / Fold change /veh MAGEB2 (11727129_at) / RFU TMEM200A (11744735_a_at) / Fold change /veh TMEM200A (11744735_a_at) / RFU CCDC152 (11751479_a_at) / Fold change /veh CCDC152 (11751479_a_at) / RFU FAM211A (11726209_a_at) / Fold change /veh FAM211A (11726209_a_at) / RFU RGS16 (11746705_a_at) / Fold change /veh RGS16 (11746705_a_at) / RFU VCAN (11755009_s_at) / Fold change /veh VCAN (11755009_s_at) / RFU RHOB (11743442_s_at) / Fold change /veh RHOB (11743442_s_at) / RFU RGS16 (11720943_a_at) / Fold change /veh RGS16 (11720943_a_at) / RFU RGS16 (11720944_at) / Fold change /veh RGS16 (11720944_at) / RFU, VPS4B / Fold change vs veh, VPS4B / RFU, CREB1 / Fold change vs veh, CREB1 / RFU, DNAJC13 / Fold change vs veh, DNAJC13 / RFU, GNAQ / Fold change vs veh, GNAQ / RFU, CDK5R1 / Fold change vs veh, CDK5R1 / RFU, ZRANB3 / Fold change vs veh, ZRANB3 / RFU, CUL4A / Fold change vs veh, CUL4A / RFU, CCNY / Fold change vs veh, CCNY / RFU, UFL1 / Fold change vs veh, UFL1 / RFU, COG3 / Fold change vs veh, COG3 / RFU, DIAPH2 / Fold change vs veh, DIAPH2 / RFU, SKA2 / Fold change vs veh, SKA2 / RFU, AFF3 / Fold change vs veh, AFF3 / RFU, LMF1 / Fold change vs veh, LMF1 / RFU, IPO11 / Fold change vs veh, IPO11 / RFU, DFFB / Fold change vs veh, DFFB / RFU, FOXP1 / Fold change vs veh, FOXP1 / RFU, CARD8 / Fold change vs veh, CARD8 / RFU, STRN3 / Fold change vs veh, STRN3 / RFU, ADK / Fold change vs veh, ADK / RFU, RASSF2 / Fold change vs veh, RASSF2 / RFU, WIPF1 / Fold change vs veh, WIPF1 / RFU, LARP1B / Fold change vs veh, LARP1B / RFU, RASA1 / Fold change vs veh, RASA1 / RFU, RB1 / Fold change vs veh, RB1 / RFU, PPFIA1 / Fold change vs veh, PPFIA1 / RFU, MAT2A / Fold change vs veh, MAT2A / RFU, CCT5 / Fold change vs veh, CCT5 / RFU, WDR92 / Fold change vs veh, WDR92 / RFU, CUX1 / Fold change vs veh, CUX1 / RFU, TTC7A / Fold change vs veh, TTC7A / RFU, TMEM135 / Fold change vs veh, TMEM135 / RFU, DEPTOR / Fold change vs veh, DEPTOR / RFU, CPM / Fold change vs veh, CPM / RFU, DNAJB6 / Fold change vs veh, DNAJB6 / RFU, CACNA2D3 / Fold change vs veh, CACNA2D3 / RFU, DTX4 / Fold change vs veh, DTX4 / RFU, TFCP2 / Fold change vs veh, TFCP2 / RFU, GMCL1 /// GMCL1P1 / Fold change vs veh, GMCL1 /// GMCL1P1 / RFU, AEBP2 / Fold change vs veh, AEBP2 / RFU, SNHG1 /// SNORD22 /// SNORD25 /// SNORD26 /// SNORD27 /// SNORD28 /// SNORD29 /// SNORD31 / Fold change vs veh, SNHG1 /// SNORD22 /// SNORD25 /// SNORD26 /// SNORD27 /// SNORD28 /// SNORD29 /// SNORD31 / Fold change (Aza/veh), C12orf56 (ProbeSet 11735607_a_at) / Fold change (ACY-1035/veh), C12orf56 (ProbeSet 11735607_a_at) / Fold change (Aza/veh), FGFR1OP (ProbeSet 11751329_s_at) / Fold change (ACY-1035/veh), FGFR1OP (ProbeSet 11751329_s_at) / Fold change (Aza/veh), VPS36 (ProbeSet 11739960_a_at) / Fold change (ACY-1035/veh), VPS36 (ProbeSet 11739960_a_at) / RFU SYPL1 (11715823_x_at) / Fold change /veh SYPL1 (11715823_x_at) / RFU IGFBP7 (11715501_s_at) / Fold change /veh IGFBP7 (11715501_s_at) / RFU REEP3 (11722064_at) / Fold change /veh REEP3 (11722064_at) / RFU IGLL1 (11728026_x_at) / Fold change /veh IGLL1 (11728026_x_at): dose or concentration left out as unconfirmed
# Settings: MV-4-11 cells, 48 hours
structure (smiles),measurement,value
Nc1ncn([C@@H]2O[C@H](CO)[C@@H](O)[C@H]2O)c(=O)n1 [azacitidine],RFU OLFML3 (11715873_a_at),10.99 RFU
